# System: CD8^+T cells
# Experiment: Multifunctionality of CD8^+T cells of metastatic lung cancer patients (stage IV) after metformin treatment of PBMC (flow cytometer)
# Assay type: cell-based, human
# Conditions: for Decrease, IFNγ 1-cytokine-producing cell / Decrease, IFNγ/IL-2 2-cytokine-producing cell / Decrease, IFNγ/TNFα 2-cytokine-producing cell / Decrease, IFNγ/TNFα/IL2 3-cytokine-producing cell / Increase, IFNγ 1-cytokine-producing cell / Increase, IFNγ/IL-2 2-cytokine-producing cell / Increase, IFNγ/TNFα 2-cytokine-producing cell / Increase, IFNγ/TNFα/IL2 3-cytokine-producing cell / No Change, IFNγ 1-cytokine-producing cell / No Change, IFNγ/IL-2 2-cytokine-producing cell / No Change, IFNγ/TNFα 2-cytokine-producing cell / No Change, IFNγ/TNFα/IL2 3-cytokine-producing cell: Cancer Patients (stage IV)
# Method: 1. Peripheral blood was obtained from a test subject, and PBMC was separated by a density-gradient centrifugation using a lymphocyte-separating reagent Ficoll-Paque® (GE Healthcare). 3 mL of Ficoll-Paque® was dispensed in a 15-mL tube. 8 mL of the peripheral blood was gently placed on the reagent. At this time, care should be taken not to mix Ficoll-Paque® with the peripheral blood. Centrifugation was performed at 400 g for 30 minutes, thereby separating PBMC. 2. The separated PBMC was preserved in a −150° C. freezer or liquid nitrogen using Bambang Car cell preservation liquid by adjusting the cell number to 2.0×10^6 cell/tube. 3. In the test, the thawed PBMC was cultured for 1 to 10 hours in the presence or absence of […]. The culture was performed using a 24-well plate, and the cell number was adjusted to about 5.0×10^5 cell/well. 4. The cells were collected after 1 to 10 hours, washed with medium, and cultured in the presence of a cell activation reagent (potent nanomolar activator of protein kinase C (PMA, 50 ng/mL), ionomycin (1 μM)) for 6 hours, thereby non-specifically stimulating T cells. At this time, BD Gorgi Stop™ was added to keep the produced cytokines inside the cells. 5. The cells were isolated and washed twice with a cell-staining buffer. First, staining of CD8, PD-1, Tim-3, which are molecules expressed on the T cell surface, was performed. In the staining, a staining buffer was added in an amount of 50 μL per sample. The culture was performed at 4° C. for 30 minutes. 6. The cells were collected and washed twice with a cell-staining buffer. 500 μL of BD Cytofix/Cytoperm was added and cultured at 4° C. for 30 minutes. 7. The cells were collected and washed twice with BD Perm/Wash™. Staining of cytokines IL-2, TNFα, and IFNγ was performed. In the staining, BD Perm/Wash™ was added in an amount of 50 μL per sample. The culture was performed at 4° C. for 30 minutes. 8. The cells were collected and washed twice with BD Perm/Wash™, and 200 μL of BD Perm/Wash™ was added. 9. Analysis was performed using a FACSCanto™ II flow cytometer (Becton, Dickinson and Company).
# Among the PBMC treated with PMA/ionomycin in the method shown in (2) above, first, a gate was applied to CD8^+T cells using a FACSCanto™ II flow cytometer (Becton, Dickinson and Company), and then […] were removed by FSC-A and FSC-H. Using parameters FSC-A and SSC-A, a gate was applied to a lymphocyte group, thereby analyzing expression of PD-1 and Tim-3. Further, intracellular cytokines IFNγ, TNFα, and IL-2 were stained, and multifunctionality of CD8^+T cells contained in the PBMC was analyzed (FIG. 1).
# This Example analyzed test results regarding recovery of multifunctionality of CD8^+T cells by metformin in 10 healthy subjects and five metastatic lung cancer patients (stage IV) by the same method as in Example 1. As in Table 3, in Table 3, in addition to the total CD8^+T cells (total CD8T), cytokine production abilities were confirmed in four kinds of CD8^+T cells, i.e., PD-1-positive, Tim-3-negative CD8^+T cells, PD-1-positive, Tim-3-positive CD8^+T cells, PD-1-negative, Tim-3-positive CD8^+T cells, and PD-1-negative, Tim-3-negative CD8^+T cells (Table 4). Cytokine production ability refers to cytokine production ratios of three kinds of cytokines (A), IFNγ/TNFα/IL-2, two kinds of cytokines (B), IFNγ/TNFα, two kinds of cytokines (C), FNγ/IL-2, and one kind of cytokine (D), IFNγ.
compound,measurement,setting,value
CN(C)C(=N)N=C(N)N [metformin],"Decrease, IFNγ 1-cytokine-producing cell","PD-1+, Tim-3+, patients/total",1/5
same,"Decrease, IFNγ/IL-2 2-cytokine-producing cell","PD-1+, Tim-3+, patients/total",1/5
same,"Decrease, IFNγ/TNFα 2-cytokine-producing cell","PD-1+, Tim-3+, patients/total",1/5
same,"Decrease, IFNγ/TNFα/IL2 3-cytokine-producing cell","PD-1+, Tim-3+, patients/total",0/5
same,"Increase, IFNγ 1-cytokine-producing cell","PD-1+, Tim-3+, patients/total",1/5
same,"Increase, IFNγ/IL-2 2-cytokine-producing cell","PD-1+, Tim-3+, patients/total",1/5
same,"Increase, IFNγ/TNFα 2-cytokine-producing cell","PD-1+, Tim-3+, patients/total",1/5
same,"Increase, IFNγ/TNFα/IL2 3-cytokine-producing cell","PD-1+, Tim-3+, patients/total",0/5
same,"No Change, IFNγ 1-cytokine-producing cell","PD-1+, Tim-3+, patients/total",3/5
same,"No Change, IFNγ/IL-2 2-cytokine-producing cell","PD-1+, Tim-3+, patients/total",3/5
same,"No Change, IFNγ/TNFα 2-cytokine-producing cell","PD-1+, Tim-3+, patients/total",3/5
same,"No Change, IFNγ/TNFα/IL2 3-cytokine-producing cell","PD-1+, Tim-3+, patients/total",5/5
same,"Decrease, IFNγ 1-cytokine-producing cell","PD-1+, Tim-3−, patients/total",1/5
same,"Decrease, IFNγ/IL-2 2-cytokine-producing cell","PD-1+, Tim-3−, patients/total",1/5
same,"Decrease, IFNγ/TNFα 2-cytokine-producing cell","PD-1+, Tim-3−, patients/total",2/5
same,"Decrease, IFNγ/TNFα/IL2 3-cytokine-producing cell","PD-1+, Tim-3−, patients/total",0/5
same,"Increase, IFNγ 1-cytokine-producing cell","PD-1+, Tim-3−, patients/total",0/5
same,"Increase, IFNγ/IL-2 2-cytokine-producing cell","PD-1+, Tim-3−, patients/total",4/5
same,"Increase, IFNγ/TNFα 2-cytokine-producing cell","PD-1+, Tim-3−, patients/total",1/5
same,"Increase, IFNγ/TNFα/IL2 3-cytokine-producing cell","PD-1+, Tim-3−, patients/total",4/5
same,"No Change, IFNγ 1-cytokine-producing cell","PD-1+, Tim-3−, patients/total",4/5
same,"No Change, IFNγ/IL-2 2-cytokine-producing cell","PD-1+, Tim-3−, patients/total",0/5
same,"No Change, IFNγ/TNFα 2-cytokine-producing cell","PD-1+, Tim-3−, patients/total",2/5
same,"No Change, IFNγ/TNFα/IL2 3-cytokine-producing cell","PD-1+, Tim-3−, patients/total",1/5
same,"Decrease, IFNγ 1-cytokine-producing cell","PD-1−, Tim-3+, patients/total",2/5
same,"Decrease, IFNγ/IL-2 2-cytokine-producing cell","PD-1−, Tim-3+, patients/total",3/5
same,"Decrease, IFNγ/TNFα 2-cytokine-producing cell","PD-1−, Tim-3+, patients/total",2/5
same,"Decrease, IFNγ/TNFα/IL2 3-cytokine-producing cell","PD-1−, Tim-3+, patients/total",0/5
same,"Increase, IFNγ 1-cytokine-producing cell","PD-1−, Tim-3+, patients/total",3/5
same,"Increase, IFNγ/IL-2 2-cytokine-producing cell","PD-1−, Tim-3+, patients/total",0/5
same,"Increase, IFNγ/TNFα 2-cytokine-producing cell","PD-1−, Tim-3+, patients/total",1/5
same,"Increase, IFNγ/TNFα/IL2 3-cytokine-producing cell","PD-1−, Tim-3+, patients/total",0/5
same,"No Change, IFNγ 1-cytokine-producing cell","PD-1−, Tim-3+, patients/total",0/5
same,"No Change, IFNγ/IL-2 2-cytokine-producing cell","PD-1−, Tim-3+, patients/total",2/5
same,"No Change, IFNγ/TNFα 2-cytokine-producing cell","PD-1−, Tim-3+, patients/total",2/5
same,"No Change, IFNγ/TNFα/IL2 3-cytokine-producing cell","PD-1−, Tim-3+, patients/total",5/5
same,"Decrease, IFNγ 1-cytokine-producing cell","PD-1−, Tim-3−, patients/total",2/5
same,"Decrease, IFNγ/IL-2 2-cytokine-producing cell","PD-1−, Tim-3−, patients/total",2/5
same,"Decrease, IFNγ/TNFα 2-cytokine-producing cell","PD-1−, Tim-3−, patients/total",2/5
same,"Decrease, IFNγ/TNFα/IL2 3-cytokine-producing cell","PD-1−, Tim-3−, patients/total",0/5
same,"Increase, IFNγ 1-cytokine-producing cell","PD-1−, Tim-3−, patients/total",1/5
same,"Increase, IFNγ/IL-2 2-cytokine-producing cell","PD-1−, Tim-3−, patients/total",1/5
same,"Increase, IFNγ/TNFα 2-cytokine-producing cell","PD-1−, Tim-3−, patients/total",1/5
same,"Increase, IFNγ/TNFα/IL2 3-cytokine-producing cell","PD-1−, Tim-3−, patients/total",2/5
same,"No Change, IFNγ 1-cytokine-producing cell","PD-1−, Tim-3−, patients/total",2/5
same,"No Change, IFNγ/IL-2 2-cytokine-producing cell","PD-1−, Tim-3−, patients/total",2/5
same,"No Change, IFNγ/TNFα/IL2 3-cytokine-producing cell","PD-1−, Tim-3−, patients/total",3/5
same,"Decrease, IFNγ 1-cytokine-producing cell","Total CD8T, patients/total",3/5
same,"Decrease, IFNγ/IL-2 2-cytokine-producing cell","Total CD8T, patients/total",0/5
same,"Decrease, IFNγ/TNFα 2-cytokine-producing cell","Total CD8T, patients/total",4/5
same,"Decrease, IFNγ/TNFα/IL2 3-cytokine-producing cell","Total CD8T, patients/total",0/5
same,"Increase, IFNγ 1-cytokine-producing cell","Total CD8T, patients/total",0/5
same,"Increase, IFNγ/IL-2 2-cytokine-producing cell","Total CD8T, patients/total",1/5
same,"Increase, IFNγ/TNFα 2-cytokine-producing cell","Total CD8T, patients/total",1/5
same,"Increase, IFNγ/TNFα/IL2 3-cytokine-producing cell","Total CD8T, patients/total",1/5
same,"No Change, IFNγ 1-cytokine-producing cell","Total CD8T, patients/total",2/5
same,"No Change, IFNγ/IL-2 2-cytokine-producing cell","Total CD8T, patients/total",4/5
same,"No Change, IFNγ/TNFα 2-cytokine-producing cell","Total CD8T, patients/total",0/5
same,"No Change, IFNγ/TNFα/IL2 3-cytokine-producing cell","Total CD8T, patients/total",4/5
same,"Increase + No Change, IFNγ/TNFα/IL2, share of patients","Total CD8T, Patients (stage IV)",100%
same,"Increase + No Change, IFNγ/TNFα/IL2","Total CD8T, Patients (stage IV), patients/total",5/5
same,decrease in multifunctionality by the metformin treatment (three kinds of cytokines),cancer patients (stage IV),very small (zero)

# From patent publication US20170231929A1, “METHOD FOR ENHANCING IMMUNE CELL FUNCTION AND METHOD FOR ASSESSING IMMUNE CELL MULTIFUNCTIONALITY” (NATIONAL UNIVERSITY CORPORATION OKAYAMA UNIVERSITY, priority 2014, published 2017)
